Legend:
Test in all cases: Test Example 1: foliar treatment, growth inhibition rate on 14th day
Assay type in all cases: in vivo
Conditions in all cases: active ingredient amount 31 g/ha, 14th day after application
[1] = tested on: soybean (Glycine max Merr.)
Outline: (§1)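 Inhibition was rated visually 14 days after treatment on a 0–100% scale, where 100 is complete kill. Compounds, formulated as wettable powders or emulsifiable concentrates at set active-ingredient amounts, were diluted to 1,000 L/ha with 0.1 vol% spreader. The dilutions were sprayed post-emergence onto soybean (primary leaf), rice (0.2–2.7 leaf), wild oat (0.4–1.2) and green foxtail (0.5–3.2).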

[2] = tested on: wild oat (Avena fatua L.)
Outline: as §1

corn (Zea mays L.) = tested on: corn (Zea mays L.)
Outline: (§2)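 Visual 0–100% inhibition scoring (100 = complete kill) at 14 days after foliar treatment of soil-grown seedlings at species-specific leaf stages, with the compound sprayed as a wettable powder or emulsifiable concentrate dilution.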

[3] = tested on: redroot pigweed (Amaranthus retroflexus L.)
Outline: as §2

[4] = tested on: crabgrass (Digitaria sanquinalis L.)
Outline: as §2

[5] = tested on: green foxtail (Setaria viridis L.)
Outline: as §1

rice (Oryza sativa L.) = tested on: rice (Oryza sativa L.)
Outline: as §1

[6] = tested on: wheat (Triticum aestivum L.)
Outline: as §2

[7] = tested on: barnyardgrass (Echinochloa crus-qalli L.)
Outline: as §2

[8] = tested on: italian ryegrass (Lolium multiflorum Lam.)
Outline: as §2

SMILES | Growth inhibition rate (%) Soybean [1] | Growth inhibition rate (%) Wild oat [2] | Growth inhibition rate (%) Corn (corn (Zea mays L.)) | Growth inhibition rate (%) Redroot pigweed [3] | Growth inhibition rate (%) Crabgrass [4] | Growth inhibition rate (%) Green foxtail [5] | Growth inhibition rate (%) Rice (rice (Oryza sativa L.)) | Growth inhibition rate (%) Wheat [6] | Growth inhibition rate (%) Barnyardgrass [7] | Growth inhibition rate (%) Italian ryegrass [8]
COc1ccc2nc(Oc3ccc(C)c(-c4c(OC(C)=O)c(C)nn(C)c4=O)c3)sc2c1 [Compound 2-154] | 10% | 0% | 0% | 0% | 10% | 60% | 0% | 0% | 80% | 10%
COC(=O)OC(C)Oc1cnn(C)c(=O)c1-c1cc(Oc2nc3ccc(Cl)cc3o2)ccc1C (centres unmarked) [Compound 2-178] | 0% | 95% | 83% | 0% | 100% | 100% | 15% | 75% | 100% | 98%
Cc1ccc(Oc2nc3ccc(Cl)cc3o2)cc1-c1c(O)cnn(CC(F)F)c1=O [Compound 2-179] | 0% | 0% | 75% | 0% | 98% | 100% | 0% | 10% | 88% | 0%
Cc1ccc(Oc2nc3cc(Br)ccc3o2)cc1-c1c(O)cnn(C)c1=O [Compound 2-183] | 30% | 95% | 50% | 0% | 98% | 98% | 90% | 90% | 95% | 98%
Cc1ccc(Oc2nc3cc(F)ccc3o2)cc1-c1c(O)cnn(C)c1=O [Compound 2-184] | 30% | 30% | 40% | 0% | 95% | 99% | 60% | 10% | 95% | 35%
Cc1ccc(Oc2nc3cccc(Cl)c3o2)cc1-c1c(O)cnn(C)c1=O [Compound 2-185] | 20% | 0% | 10% | 0% | 85% | 88% | 0% | 0% | 93% | 0%
Cc1ccc(Oc2nc3ccc(Cl)cc3o2)cc1-c1c(O)cnn(CC2CC2)c1=O [Compound 2-186] | 15% | 25% | 98% | 0% | 99% | 99% | 0% | 0% | 90% | 0%
Cc1ccc(Oc2ccc3nc(Cl)cn3n2)cc1-c1c(O)c(C)nn(C)c1=O [Compound 2-193] | 0% | 0% | 65% | 0% | 90% | 93% | 0% | 0% | 70% | 0%
CCOC(=O)Oc1c(C)nn(C)c(=O)c1-c1cc(Oc2cnc3cc(Cl)ccc3n2)ccc1C [Compound 3-35] | 25% | 100% | 60% | 10% | 99% | 99% | 95% | 100% | 100% | 99%
CCCCC(=O)Oc1c(C)nn(C)c(=O)c1-c1cc(Oc2cnc3cc(Cl)ccc3n2)ccc1C [Compound 3-36] | 40% | 99% | 40% | 0% | 99% | 99% | 90% | 99% | 100% | 99%
Cc1ccc(Oc2cnc3cc(Cl)ccc3n2)cc1-c1c(OC(=O)C2CC2)c(C)nn(C)c1=O [Compound 3-37] | 30% | 98% | 45% | 10% | 99% | 100% | 95% | 99% | 100% | 99%
Cc1ccc(Oc2cnc3cc(Cl)ccc3n2)cc1-c1c(OC(=O)c2ccccc2)c(C)nn(C)c1=O [Compound 3-38] | 25% | 98% | 30% | 20% | 100% | 100% | 80% | 98% | 100% | 99%
Cc1ccc(Oc2cnc3cc(Cl)ccc3n2)cc1-c1c(OC(=O)N2CCOCC2)c(C)nn(C)c1=O [Compound 3-39] | 0% | 0% | 15% | 0% | 0% | 95% | 0% | 0% | 88% | 0%
Cc1ccc(Oc2cnc3cc(Cl)ccc3n2)cc1-c1c(OCc2ccccc2)c(C)nn(C)c1=O [Compound 3-41] | 0% | 98% | 20% | 20% | 95% | 99% | 10% | 99% | 100% | 99%
Cc1ccc(Oc2cnc3cc(Cl)ccc3n2)cc1-c1c(OC(=O)C(C)(C)C)c(C)nn(C)c1=O [Compound 3-42] | 0% | 100% | 30% | 10% | 20% | 98% | 60% | 20% | 100% | 95%
Cc1ccc(Oc2cnc3cc(Cl)ccc3n2)cc1-c1c(OC(=O)c2cn(C)nc2C)c(C)nn(C)c1=O [Compound 3-43] | 10% | 98% | 40% | 0% | 98% | 100% | 80% | 95% | 100% | 98%
COC(=O)OC(C)Oc1c(C)nn(C)c(=O)c1-c1cc(Oc2cnc3cc(Cl)ccc3n2)ccc1C (centres unmarked) [Compound 3-44] | 10% | 100% | 20% | 0% | 99% | 100% | 85% | 85% | 100% | 98%
